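Step 1: Grow cells in 96-well plates. Step 2: Expose to compound for 48 hours at 5 concentrations. Step 3: Interpolate endpoints linearly; if unreached, use highest concentration. GI50 = concentration required for 50% inhibition of growth.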 Calls of active or inactive are those of the source. Cut-off read from the data, not from the text of the source: active = GI50 up to about 1.1 µM and inactive = higher.
What was measured:
Assay in all cases: DTP human tumour cell line panel, 48 h
CCRF-CEM = tested on: CCRF-CEM
NCI-H460 = tested on: NCI-H460
SF-268 = tested on: SF-268
SR = tested on: SR
OVCAR-8 = tested on: OVCAR-8
PC-3 = tested on: PC-3
DU-145 = tested on: DU-145
RXF 393 = tested on: RXF 393
CAKI-1 = tested on: CAKI-1
NCI-H522 = tested on: NCI-H522
HCC 2998 = tested on: HCC 2998
COLO 205 = tested on: COLO 205
M14 = tested on: M14
OVCAR-5 = tested on: OVCAR-5
HT-29 = tested on: HT-29
OVCAR-4 = tested on: OVCAR-4
MCF7 = tested on: MCF7
K562 = tested on: K562
HOP-62 = tested on: HOP-62
Malme-3M = tested on: Malme-3M

SMILES | GI50 (CCRF-CEM) | GI50 (NCI-H460) | GI50 (SF-268) | GI50 (SR) | GI50 (OVCAR-8) | GI50 (PC-3) | GI50 (DU-145) | GI50 (RXF 393) | GI50 (CAKI-1) | GI50 (NCI-H522) | GI50 (HCC 2998) | GI50 (COLO 205) | GI50 (M14) | GI50 (OVCAR-5) | GI50 (HT-29) | GI50 (OVCAR-4) | GI50 (MCF7) | GI50 (K562) | GI50 (HOP-62) | GI50 (Malme-3M)
O=C(Nc1ccc(Nc2ccc3c(c2)C(=O)c2ccccc2C3=O)c2c1C(=O)c1ccccc1C2=O)c1ccccc1 | 14.6 µM (inactive) | 6.47 µM (inactive) | 44.9 µM (inactive) | 0.989 µM (active) | > 86.5 µM (inactive) | 12.1 µM (inactive) | 80.2 µM (inactive) | 20.3 µM (inactive) | > 100 µM (inactive) | 3.36 µM (inactive) | 6.84 µM (inactive) | 51.6 µM (inactive) | > 91.8 µM (inactive) | > 100 µM (inactive) | 43.7 µM (inactive) | > 100 µM (inactive) | 31.3 µM (inactive) | 7 µM (inactive) | 44.9 µM (inactive) | 14.1 µM (inactive)
O=C1CCCC2(c3ccccc3)Nc3ccccc3N12 (stereo not given) | > 100 µM (inactive) | 78.5 µM (inactive) | > 100 µM (inactive) | 67.8 µM (inactive) | > 100 µM (inactive) | > 100 µM (inactive) | > 100 µM (inactive) | > 100 µM (inactive) | > 100 µM (inactive) | > 100 µM (inactive) | > 100 µM (inactive) | > 100 µM (inactive) | > 100 µM (inactive) | > 100 µM (inactive) | > 100 µM (inactive) | > 100 µM (inactive) | > 100 µM (inactive) | 82.6 µM (inactive) | > 100 µM (inactive) | > 100 µM (inactive)
Oc1cc(O)c2c(c1)O[C@H](c1cc(O)c(O)c(O)c1)[C@@H](O)C2 [GALLOCATECHIN] | 19.5 µM (inactive) | 19.2 µM (inactive) | 23.6 µM (inactive) | 19.6 µM (inactive) | 16.2 µM (inactive) | 30.7 µM (inactive) | > 100 µM (inactive) | 17 µM (inactive) | 43.7 µM (inactive) | 17.5 µM (inactive) | > 10 µM (inactive) | 19.3 µM (inactive) | 25.1 µM (inactive) | 18.8 µM (inactive) | – | 22.4 µM (inactive) | 18.8 µM (inactive) | 18 µM (inactive) | 17.5 µM (inactive) | > 100 µM (inactive)
C=CCOC(=O)N1c2ccc(O[Si](C)(C)C(C)(C)C)cc2[C@@]23O[C@@]24[C@@H]1C#C/C=C\C#C[C@]3(O)C(OC)(OC)C[C@@H]4C | > 23.7 µM (inactive) | 11.5 µM (inactive) | 97.7 µM (inactive) | 33.9 µM (inactive) | > 53.8 µM (inactive) | 4.54 µM (inactive) | > 80 µM (inactive) | 29.5 µM (inactive) | 2.71 µM (inactive) | 44.6 µM (inactive) | > 22.8 µM (inactive) | > 26.8 µM (inactive) | > 65 µM (inactive) | > 100 µM (inactive) | 12.9 µM (inactive) | 48.6 µM (inactive) | 10.8 µM (inactive) | 4.14 µM (inactive) | > 61.7 µM (inactive) | > 100 µM (inactive)
COc1ccnc2c1C(=O)c1nc3ccccc3c3ccnc-2c13 | 0.295 µM (active) | 0.0232 µM (active) | 0.137 µM (active) | 0.0343 µM (active) | 0.0512 µM (active) | 0.141 µM (active) | 0.0479 µM (active) | 0.231 µM (active) | 0.181 µM (active) | 0.0375 µM (active) | 0.0687 µM (active) | 0.0796 µM (active) | 0.0418 µM (active) | 0.52 µM (active) | 0.0571 µM (active) | 0.307 µM (active) | 0.0807 µM (active) | 0.163 µM (active) | 0.125 µM (active) | 0.262 µM (active)
Cn1c(=O)c2ccccc2[n+]2c(-c3cccc([N+](=O)[O-])c3)csc12 | 32.6 µM (inactive) | 36.7 µM (inactive) | 26.5 µM (inactive) | 18.6 µM (inactive) | 18 µM (inactive) | 50.5 µM (inactive) | > 100 µM (inactive) | 43.4 µM (inactive) | 73.5 µM (inactive) | 38 µM (inactive) | > 100 µM (inactive) | > 100 µM (inactive) | > 100 µM (inactive) | > 100 µM (inactive) | 41.3 µM (inactive) | > 100 µM (inactive) | 32.6 µM (inactive) | 36.7 µM (inactive) | 21.2 µM (inactive) | > 100 µM (inactive)
Cc1ccc(OCC2OC(n3cnc4c(Cl)nc(Nc5cc(Cl)cc(Cl)c5)nc43)CC2Oc2ccc(C)cc2)cc1 (stereo not given) | > 100 µM (inactive) | > 100 µM (inactive) | > 100 µM (inactive) | > 100 µM (inactive) | > 100 µM (inactive) | > 100 µM (inactive) | > 100 µM (inactive) | > 100 µM (inactive) | > 100 µM (inactive) | > 100 µM (inactive) | > 100 µM (inactive) | > 100 µM (inactive) | > 100 µM (inactive) | > 100 µM (inactive) | > 100 µM (inactive) | 10.4 µM (inactive) | > 100 µM (inactive) | > 100 µM (inactive) | – | > 100 µM (inactive)
Cc1ccc(C(=O)Nc2ccc(S(=O)(=O)O)c3cc(S(=O)(=O)O)cc(S(=O)(=O)O)c23)cc1NC(=O)c1cccc(NC(=O)Nc2cccc(C(=O)Nc3cc(C(=O)Nc4ccc(S(=O)(=O)O)c5cc(S(=O)(=O)O)cc(S(=O)(=O)O)c45)ccc3C)c2)c1 [SURAMIN] | > 100 µM (inactive) | > 80.5 µM (inactive) | 66.2 µM (inactive) | 69.3 µM (inactive) | 74.8 µM (inactive) | > 100 µM (inactive) | > 100 µM (inactive) | > 92.7 µM (inactive) | 73.5 µM (inactive) | 88.5 µM (inactive) | > 100 µM (inactive) | > 72.9 µM (inactive) | 74.8 µM (inactive) | > 50.6 µM (inactive) | 62.4 µM (inactive) | 79.3 µM (inactive) | > 100 µM (inactive) | > 93.5 µM (inactive) | > 100 µM (inactive) | > 83 µM (inactive)
Cc1ccc(CC[PH](=O)CCc2ccc(C)nc2)cn1 | > 100 µM (inactive) | > 100 µM (inactive) | > 100 µM (inactive) | > 100 µM (inactive) | > 100 µM (inactive) | > 100 µM (inactive) | > 100 µM (inactive) | > 100 µM (inactive) | > 100 µM (inactive) | > 100 µM (inactive) | > 100 µM (inactive) | > 100 µM (inactive) | > 100 µM (inactive) | > 100 µM (inactive) | > 100 µM (inactive) | > 100 µM (inactive) | > 100 µM (inactive) | > 100 µM (inactive) | > 100 µM (inactive) | > 100 µM (inactive)
CN(C)CCNS(=O)(=O)N(C)C | > 100 µM (inactive) | > 100 µM (inactive) | > 100 µM (inactive) | > 100 µM (inactive) | > 100 µM (inactive) | > 100 µM (inactive) | > 100 µM (inactive) | > 100 µM (inactive) | > 100 µM (inactive) | > 100 µM (inactive) | – | > 100 µM (inactive) | > 100 µM (inactive) | > 100 µM (inactive) | > 100 µM (inactive) | > 100 µM (inactive) | > 100 µM (inactive) | > 100 µM (inactive) | > 100 µM (inactive) | > 100 µM (inactive)
O=C(O)CS(=O)(=O)C(c1ccccc1)c1ccccc1 | > 100 µM (inactive) | > 100 µM (inactive) | > 100 µM (inactive) | > 100 µM (inactive) | > 100 µM (inactive) | > 100 µM (inactive) | > 100 µM (inactive) | > 100 µM (inactive) | > 100 µM (inactive) | > 100 µM (inactive) | – | > 100 µM (inactive) | > 100 µM (inactive) | > 100 µM (inactive) | > 100 µM (inactive) | > 100 µM (inactive) | > 100 µM (inactive) | > 100 µM (inactive) | > 100 µM (inactive) | > 100 µM (inactive)
N#CCc1nc(C#N)c(N)o1 | > 100 µM (inactive) | > 100 µM (inactive) | > 100 µM (inactive) | > 100 µM (inactive) | > 100 µM (inactive) | > 100 µM (inactive) | > 100 µM (inactive) | > 100 µM (inactive) | > 100 µM (inactive) | > 100 µM (inactive) | > 100 µM (inactive) | > 100 µM (inactive) | > 100 µM (inactive) | > 100 µM (inactive) | > 100 µM (inactive) | > 100 µM (inactive) | > 100 µM (inactive) | – | > 100 µM (inactive) | < 0.01 µM (active)
C/C=C(/C)C(=O)O[C@H](C[C@@H](C)[C@H]1CC(c2ccoc2)OC1=O)[C@@]1(C)C(=O)CCC2O[C@]21C (stereo not given in full) | > 100 µM (inactive) | > 100 µM (inactive) | – | > 100 µM (inactive) | > 100 µM (inactive) | > 100 µM (inactive) | > 100 µM (inactive) | > 100 µM (inactive) | > 100 µM (inactive) | > 100 µM (inactive) | > 100 µM (inactive) | > 100 µM (inactive) | > 100 µM (inactive) | > 100 µM (inactive) | > 100 µM (inactive) | > 100 µM (inactive) | > 100 µM (inactive) | > 100 µM (inactive) | – | > 100 µM (inactive)
COc1ccccc1N1C(=O)/C(=C\c2cccc(Oc3ccccc3)c2)S(=O)(=O)C1c1ccccc1 (stereo not given) | 33.9 µM (inactive) | 53.7 µM (inactive) | – | 16.7 µM (inactive) | – | 41.4 µM (inactive) | 55.6 µM (inactive) | > 100 µM (inactive) | > 100 µM (inactive) | 22.5 µM (inactive) | > 100 µM (inactive) | 23.1 µM (inactive) | 50 µM (inactive) | 89.9 µM (inactive) | – | 9.79 µM (inactive) | 27.4 µM (inactive) | 17.3 µM (inactive) | > 100 µM (inactive) | 69.3 µM (inactive)

— ChEMBL document CHEMBL1201862, “PubChem BioAssay data set” (2004)
